How the values were obtained:
[1] = tested on: INI1-deleted malignant rhabdoid tumor (MRT) models; experiment: INI1-deleted malignant rhabdoid tumor (MRT) models in vitro; format: cell-based
MRT xenograft = experiment: MRT xenograft-bearing mice; format: in vivo
oral bioavailability = conditions: in vivo

- oral bioavailability (oral bioavailability): orally bioavailable
Compound: CCN(c1cc(-c2ccc(CN3CCOCC3)cc2)cc(C(=O)NCc2c(C)cc(C)[nH]c2=O)c1C)C1CCOCC1 [EPZ-6438]
- apoptosis and differentiation [1]: induce apoptosis and differentiation
- apoptosis and differentiation (MRT xenograft): induce apoptosis and differentiation
